Test in all cases: DTP human tumour cell line panel, 48 h
For test [1], the system named is ACHN renal.
Test [2] deals with HOP-62 NSCLC.
Test [3] has as its system HOP-92 NSCLC.
In test [4] the test system is HS 578T breast.
For test [5], the system named is HT29 colon.
Test [6] deals with MDA-MB-435.
For test [7], the system named is MOLT-4 leukemia.
Test [8] concerns NCI-H226 lung.
In test [9] the test system is NCI-H23 lung.
The subject of test [10] is RXF 393 renal.
Test [11] relates to SF-295 CNS.
Test [12] relates to SK-OV-3 ovarian.
Test [13] relates to SNB-75 CNS.
Test [14] deals with SW-620 colon.
In test [15] the test system is U251 CNS.

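How tested: cells in 96-well plates exposed to compound for 48 hours at five concentrations. TGI: total growth inhibition.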

In general, TGI refers to the concentration giving total growth inhibition. The low end stands for greater sensitivity of the cells, the high end for lower sensitivity of the cells. Turning to `COc1cc(S(=O)(=O)Nc2ccc(-c3csc(/N=C\c4ccccc4O)n3)cc2)ccc1Cl`, the TGI in [1], in [2], in test [3], in [4], in test [5] and in test [6] was above 100 µM in each case. Besides, the TGI in test [7] is 70.3 µM; in test [8], above 100 µM; in test [9], above 100 µM; in [10] it was above 100 µM; in test [11] it was above 100 µM; in [12] it was above 100 µM. Besides, the TGI in [13] and in test [14] was above 100 µM in each case.
Turning to `CCN(CC)CCOc1ccc(N2Cc3cc(OC)c(OC)cc3C2=O)cc1`, the total growth inhibition concentration (TGI) in [1], in [2], in test [3], in test [4], in test [5] and in test [6] was above 100 µM each time. Also, the TGI in test [7], in [8], in test [9], in [10], in test [11] and in test [12] was above 100 µM throughout. Moreover, the TGI in test [14] and in test [15] was above 100 µM each time.
Regarding `CCN(CC)CCC1CCCCN1CC(=O)N1c2ccccc2NC(=O)CC1C` (stereo not drawn), the TGI in [1], in test [2], in test [3], in test [4], in [5] and in [6] was above 100 µM throughout. The TGI in test [7], in test [8], in [9], in test [10], in test [11] and in test [12] was above 100 µM in each case. For the same compound, the results for the TGI in test [13] and in [15] were 11.8 µM and above 100 µM, respectively.
`COc1ccc(-c2nc(SCC(=O)N/N=C/c3ccc([N+](=O)[O-])cc3)[nH]c2-c2ccc(OC)cc2)cc1`: the TGI was 99.4 µM in test [1]; above 100 µM in test [2]; above 61.3 µM in [3]; 76.3 µM in test [4]; 26.9 µM in [5]; 12.2 µM in test [6]. For the same compound, the TGI in [7] is 42.1 µM; in [9], 85.6 µM; in [10] it was 56.6 µM; in test [11] it was above 69 µM; in test [12], above 81.9 µM; in test [13] it was above 63.3 µM. In addition, the TGI was above 65.7 µM in test [14] and 29.4 µM in test [15].
For `NC(=S)Nc1c(S(N)(=O)=O)cc(S(N)(=O)=O)c(Cl)c1Cl`, the TGI in test [2], in test [3], in test [4], in test [5], in test [6] and in test [7] was above 100 µM each time. In addition, the concentration for total growth inhibition (TGI) in test [8], in test [9], in [10], in [11], in [12] and in test [13] was above 100 µM in each case. For the same compound, the TGI in test [14] and in test [15] was above 100 µM throughout.
In the case of `CCc1nc2c(n1CC)C(=O)c1ccccc1C2=O`, the TGI in [1] is above 100 µM; in [2], above 100 µM; in test [3], above 100 µM; in test [4], above 100 µM; in [5] it was 63.9 µM; in test [6], 32.2 µM. Also, the TGI in test [7] was above 100 µM; in [8], above 100 µM; in test [9], above 100 µM; in test [10], 51 µM; in [11] it was above 100 µM; in test [13], above 100 µM. For the same compound, the TGI in test [14] and in test [15] was above 100 µM throughout.
For the compound `COc1cc(/C=C2\N=C(c3ccccc3)N(c3ccc4c(c3)Sc3cc(N5C(=O)/C(=C/c6cc(OC)c(OC)c(OC)c6)N=C5c5ccccc5)ccc3N4)C2=O)cc(OC)c1OC`, the TGI in test [1] was 36.4 µM; in test [2], 60.2 µM; in test [3], 40.6 µM; in test [4], 88.1 µM; in test [5] it was above 100 µM; in test [6] it was 33.6 µM. Besides, the TGI was above 100 µM in test [7]; 40.3 µM in test [9]; 46.1 µM in test [10]; 47.9 µM in test [11]; 38.1 µM in [12]; 52.5 µM in test [13]. In addition, the TGI in test [14] is above 100 µM; in test [15], 44.2 µM.
As for `CO[C@@H]1C[C@H]2[C@@H]3CC[C@H]([C@@H](C)COC(C)=O)[C@@]3(C)CC[C@@H]2[C@@]2(C)CC[C@H]3C[C@]312`, the TGI in test [1] was found to be 30.2 µM; in [2], 31.5 µM; in [3] it was 35.2 µM; in [4] it was 39.5 µM; in test [5], 19.9 µM; in [6], 29.2 µM. The TGI in test [7] came out at 32.3 µM; in test [8], 34.9 µM; in [9], 25.4 µM; in test [10] it was 35.7 µM; in test [11], 28.3 µM; in [13], 33.5 µM. Also, the TGI in test [14] is 27.3 µM; in test [15], 25.8 µM.
`Cc1ccc([N+](=O)[O-])cc1S(=O)(=O)Nc1ccc(C(=O)/C=C/c2ccccc2)cc1`: the TGI in test [1] is 28 µM; in test [2], 34.5 µM; in test [3], 41.1 µM; in test [4] it was above 100 µM; in test [5], 57.6 µM; in [6] it was 36.6 µM. The TGI in [7] is 23 µM; in test [8], 98.4 µM; in test [9], 34.7 µM; in [10], 25 µM; in test [11], 44.1 µM; in test [12] it was 95 µM. Besides, the figures for the TGI in test [13] and in [14] were 32.3 µM and 59.4 µM, respectively.
Consider `N#Cc1nc(/C=C/c2cccs2)oc1N`, for which the TGI in [1], in [2], in [3], in [4], in test [5] and in test [6] was above 100 µM in each case. Moreover, the concentration for total growth inhibition (TGI) in test [7], in test [10], in test [12], in test [13], in test [14] and in [15] was above 100 µM each time.

The values are drawn from PubChem BioAssay (NCI).
